Test results from ChEMBL document CHEMBL5113425, “Preparation of a multifunctional photoactivated prodrug on a streptavidin scaffold bearing a DNA aptamer” (Bioorg Med Chem Lett, 2022).
Active and inactive are the calls of the source. The rule behind the calls is not given here.

What was measured:
[1] = tested on: SK-BR-3; assay: Cytotoxicity in human SK-BR-3 cells assessed as reduction in cell viability at 50 to 500 nM incubated for 72 hrs in presence of 15 mins photoirradiation at 365 nm by WST assay; assay type: functional, cell-based; settings: dose 50-500 nM
[2] = tested on: SK-BR-3; assay: Cytotoxicity in human SK-BR-3 cells assessed as reduction in cell viability at 50 to 500 nM incubated for 72 hrs in absence of 15 mins photoirradiation at 365 nm by WST assay; assay type: toxicity, cell-based; settings: sk-br-3, 72 h, 0.5 µM, dose 50-500 nM

CC[C@@]1(OC(=O)CCCCNC(=O)OC(C)c2cc(OC)c(OCCCC(=O)NCCN3C(=O)CC(NCCNC(=O)CCCC[C@@H]4SC[C@H]5NC(=O)N[C@@H]45)C3=O)cc2[N+](=O)[O-])C(=O)OCc2c1cc1n(c2=O)Cc2cc3ccccc3nc2-1 (some centres not stated)
Activity [1]: Active | Activity [2]: Non-Toxic
